Holding throughout (assay type): cell-based, human
For test [1], the system named is MIA PaCa-2 cells. Kind of test: Chemosensitivity (MTT cell viability) assay, MIA PaCa-2. The method, then: All cytotoxicity assays were conducted using human cell lines: breast adenocarcinomas (MDA-MB-231 and MCF-7), pancreatic carcinoma (MIA PaCa-2) and non-cancerous epithelial retinal (ARPE-19) cell lines. All cell lines were routinely maintained as monolayer cultures in appropriate complete media:
MCF-7, MIA PaCa-2 and ARPE-19 in high glucose DMEM and MDA-MB-231 in RPMI-1640, and both media were supplemented with 10% FBS, 1 mM sodium pyruvate, 2 mM L-glutamine, and 1% pen-strep. All cells were initially grown in T-25 or T-75 flasks at 37 °C and 5% CO2. Before chemosensitivity studies, cell monolayers were passaged using trypsin-EDTA (0.05%) and diluted to a concentration of 1 x 10^4 cells/mL (or 4 x 10^4 cells mL for 24 h assays). All assays were conducted in 96-well plates, in which 100 µL of the cell suspension was added for 24 h at 37 °C and 5% CO2, and then 100 µL of compound/medium dilutions for a further 96 h (or 24 h). All compound stocks were made using sterile DMSO at 100 mM before dilution, and a maximum of 0.1% DMSO was used in each assay. After incubation, 3-(4,5-dimethylthiazol-2-yl)-2,5-diphenyltetrazolium bromide (20 µL, 5 mg/mL in PBS) was added to each well and incubated for 3 h at 37°C and 5% CO2. All solutions were then aspirated, DMSO (150 µL) added to each well, gently mixed, and the absorbance was measured at 540 nm using a ClarioStar spectrophotometer microplate reader. Results were plotted on a logarithmic scale, and the half maximal inhibitory concentration (IC50) was determined from a triplicate of triplicate repeats (n = 9) and reported as an IC 50 ± Standard Deviation (SD).

In test [2] the test system is MDA-MB-231 cells. Kind of test: Acridine orange/ethidium bromide (AO/EB) staining. The settings on record: MDA-MB-231, 48 h. The method, then: To investigate how the drugs impacted cell viability, acridine orange (AO)/ethidium bromide (EtBr) staining was employed to identify the MDA-MB-231 cells' mode of death in response to compound 1 or CDDP, with AO marking early apoptotic cells in green and EtBr marking late apoptotic or necrotic cells in red. […] This effect was more pronounced than with CDDP, indicating its higher efficacy.
MDA-MB-231 cells at 4000 cells/well were seeded into a black clear -bottom 96-well plate using phenol-red free complete RMPI medium, and incubated for 48 h. The cells were treated with 100 µM of 1 for 4 h alongside an untreated sample (control). […] Fluorescence images were obtained using a Zeiss Observer 7 inverted microscope at excitation at 488 nm and emission at 509 […]
(§1) Plasmid DNA (200 ng, pBOS -H2B-GFP, BD Biosciences) was incubated overnight at room temperature with 1 or CDDP at concentrations between 100 and 400 μM in double -distilled H2O (20 μL total volume). […] The experiment was conducted in two biological replicates, and the band intensities were quantified and analyzed using ImageJ software. […]
MDA-MB-231 cells were seeded in 6-well plates at a density of 1.2 × 10⁵ cells/well. […] The samples were then placed on microscope slides, covered with a coverslip, and their morphology was examined using a fluorescence microscope (Eclipse TS100, Nikon). […]

Test [3] relates to MDA-MB-231 cells. Kind of test: Nuclei morphology assay (DAPI). The conditions noted are these: MDA-MB-231, 48 h.
Description: The potential of compound 1 to trigger apoptosis in breast cancer cells was then studied. […] High-magnification insets (1–6) illustrate representative nuclear morphologies captured in the assay. Condensed, hyperintense nuclei with reduced area (e.g., images 1, 2 and 3), irregular nuclear blebs with discontinuous chromatin (e.g., images 3 and 4), and fragmented chromatin consistent with apoptotic bodies (e.g., images 5 and 6).
7 Microscopic visualization of nuclear morphology changes in MDA-MB-231 breast cancer cells after 48 h exposure to compound 1 or CDDP. […] Images were acquired using a Leica DMI8 fluorescence microscope at 40× magnification. […]
MDA-MB-231 cells at 4000 cells/well were seeded into a black clear -bottom 96-well plate using phenol-red free complete RMPI medium, and incubated for 48 h. […] Fluorescence images were obtained using a Zeiss Observer 7 inverted microscope at excitation at 488 nm and emission at 509 […]
as §1

The IC50 is the concentration at which inhibition is half-maximal. Lower therefore signals greater potency. As for “[Cp*Ir(C16H14NO)(PTA)](PF6) [Compound 1]”, half-maximal inhibition in test [1] (MIA PaCa-2, 96 h, n = 9) (IC50) required 9 ± 1 µM. The “Selectivity index (SI)” value in test [1] (MIA PaCa-2 compared to ARPE-19, 96 h) is listed as 1.2. In addition, the “AO/EtBr staining (mode of cell death)” value in test [2] is recorded as “increased staining for both dyes”. Also, the Nuclear morphology result in test [3] is “typical apoptotic features like DNA fragmentation and condensation”.

These data come from article PMC12406195, “Understanding the Modes of Action of β‑Ketoiminato Iridium(III) Complexes in Cancer Cells” (Inorganic Chemistry, 2025).
